Assays:
[1] = molecular target: High-affinity choline transporter 1 (Rattus norvegicus) (UniProt Q9JMD7); assay: Inhibition constant of high-affinity choline uptake
[2] = molecular target: High-affinity choline transporter 1 (Rattus norvegicus) (UniProt Q9JMD7); assay: Inhibition of high affinity choline uptake at concentration of 1 uM
[3] = Enzyme inhibition dissociation constant for choline acetyl transferase (ChAcT) was determined

Sequence of High-affinity choline transporter 1 (Rattus norvegicus) (Q9JMD7 whole entry, looked up): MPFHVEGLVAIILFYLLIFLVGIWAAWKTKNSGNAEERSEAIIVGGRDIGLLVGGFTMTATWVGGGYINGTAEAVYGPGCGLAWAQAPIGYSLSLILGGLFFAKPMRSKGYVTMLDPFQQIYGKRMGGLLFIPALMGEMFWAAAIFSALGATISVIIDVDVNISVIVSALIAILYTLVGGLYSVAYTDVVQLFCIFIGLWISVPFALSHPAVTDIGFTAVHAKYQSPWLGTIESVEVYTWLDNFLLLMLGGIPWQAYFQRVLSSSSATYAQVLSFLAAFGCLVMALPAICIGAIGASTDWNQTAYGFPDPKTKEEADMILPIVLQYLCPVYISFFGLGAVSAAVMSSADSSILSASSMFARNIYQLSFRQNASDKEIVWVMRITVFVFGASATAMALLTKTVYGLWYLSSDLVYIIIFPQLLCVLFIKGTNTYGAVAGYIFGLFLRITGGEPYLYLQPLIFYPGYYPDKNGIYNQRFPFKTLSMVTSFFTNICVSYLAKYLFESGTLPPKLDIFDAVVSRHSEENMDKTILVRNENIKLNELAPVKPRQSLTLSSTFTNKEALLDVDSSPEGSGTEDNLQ

Structure (SMILES) | Ki [1] | IC50 [2] | Ki [3]
C[N+](C)(C)c1cccc(O)c1O [(2,3-Dihydroxy-phenyl)-trimethyl-ammonium; iodide] | 60 µM | 83 µM | 15000 µM
C[N+](C)(C)CC(O)c1ccc(O)c(O)c1 (stereo not given) [[2-(3,4-Dihydroxy-phenyl)-2-hydroxy-ethyl]-trimethyl-ammonium; iodide] | 130 µM | 221 µM | –
